Laboratory results reported in article PMC6930524, “A Prospective Repurposing of Dantrolene as a Multitarget Agent for Alzheimer’s Disease” (Molecules, 2019).

Assays:
[1] = target: T1, BChE from human serum (hBChE) (Homo sapiens, UniProt P06276); test: hBChE inhibition, Ellman's spectrophotometric assay; type: biochemical; conditions: mean ± SEM of three independent experiments
T1 construct: BChE from human serum (50 U/mg); purchased Sigma-Aldrich Europe (Milan, Italy); host or cells: human serum
T1 sequence (P06276 29-602): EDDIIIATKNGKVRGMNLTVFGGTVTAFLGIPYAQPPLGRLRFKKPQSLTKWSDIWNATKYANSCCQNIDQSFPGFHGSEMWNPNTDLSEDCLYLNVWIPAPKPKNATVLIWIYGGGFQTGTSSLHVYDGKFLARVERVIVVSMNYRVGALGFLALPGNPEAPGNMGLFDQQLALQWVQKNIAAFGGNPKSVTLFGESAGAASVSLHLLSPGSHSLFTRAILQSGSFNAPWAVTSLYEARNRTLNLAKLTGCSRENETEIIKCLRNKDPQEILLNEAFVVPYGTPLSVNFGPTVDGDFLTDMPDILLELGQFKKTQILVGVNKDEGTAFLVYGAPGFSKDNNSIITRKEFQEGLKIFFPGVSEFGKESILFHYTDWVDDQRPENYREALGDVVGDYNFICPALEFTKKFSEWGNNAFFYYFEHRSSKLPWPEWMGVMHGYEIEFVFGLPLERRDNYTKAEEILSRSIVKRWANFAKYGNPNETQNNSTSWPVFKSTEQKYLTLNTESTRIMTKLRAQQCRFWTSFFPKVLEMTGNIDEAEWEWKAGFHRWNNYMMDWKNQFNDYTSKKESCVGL
Method: An already published method was used to apply the Ellman’s spectrophotometric assay to the 96-well plate technique. […] Experiments were performed in duplicate in transparent, flat-bottomed polystyrene 96-well microtiter plates, and readings made with Tecan Infinite M1000 Pro instrument.

[2] = system: SH-SY5Y cells; test: DCF-DA assay of dopamine-induced ROS production; type: cell-based; conditions: dopamine 10 nM insult, compound 100 nM
Method: In order to get further information about the potential neuroprotective effects exerted by DAN, we tested it in a 2′,7′-dichlorofluorescin diacetate (DCF-DA) fluorescence-based assay, measuring the production of ROS induced by dopamine in cultured SH-SY5Y cells. Immortalized neuroblastoma cells are a widely used model for neuroprotection assays, while dopamine at a concentration of 10 nM acts as an inducer of oxidative stress, being metabolized by MAOs to form hydrogen peroxide. Once hydrolyzed and oxidized, DCF acts as the fluorescing probe of the OS state of cells. In the presence of an antioxidant, or even of a MAO inhibitor, ROS burden is lowered and DCF fluorescence decreased. […] Its activity is completely superimposable to that of phenelzine, a nonselective MAO inhibitor used as a positive control in Figure 5B [41]. […]
ROS production in SH-SY5Y cell line was detected using Cellular Reactive Oxygen Species Detection Assay Kit ([…]; Abcam, Cambridge, UK). […] After washing, the fluorescence was read immediately, and the readings were taken every 15 min in a 60-min time interval. Fluorescence signal at 535 nm (excitation at 485 nm) was measured using Tecan Infinite M1000 Pro (Tecan, Mannedorf, Switzerland).

[3] = target: T2, carnitine/acylcarnitine carrier (CAC) in intact rat liver mitochondria (Rattus norvegicus, UniProt P97521); test: [3H]-carnitine uptake (CAC transport) in intact mitochondria; type: biochemical; conditions: 50 μM, after 120 min, 0.05 mM [3H]-carnitine
T2 construct: The measurement of CAC activity in isolated entire mitochondria has been performed as previously described; from tissue; host or cells: rat liver mitochondria (intact organelles)
T2 sequence (P97521 1-301): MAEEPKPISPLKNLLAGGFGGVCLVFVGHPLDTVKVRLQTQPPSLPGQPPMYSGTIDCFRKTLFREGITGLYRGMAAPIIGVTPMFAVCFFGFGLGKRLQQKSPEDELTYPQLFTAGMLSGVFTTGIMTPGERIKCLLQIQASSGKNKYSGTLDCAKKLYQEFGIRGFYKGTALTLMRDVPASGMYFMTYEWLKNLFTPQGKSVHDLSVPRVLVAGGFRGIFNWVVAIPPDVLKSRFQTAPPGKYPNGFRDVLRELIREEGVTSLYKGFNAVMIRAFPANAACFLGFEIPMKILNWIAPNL
Method: The purification of crude rat mitochondria and the measurement of CAC transport activity are described in Materials and Methods. The uptake of carnitine was started by adding 0.05 mM [^3H]-carnitine in the presence or absence of 50 μM DAN (dissolved in 1:1 DMSO/H2O). The transport activity was inhibited at various times by adding cold 1 mM N-ethylmaleimide (NEM) in a buffer containing 150 mM sucrose, 50 mM TRIS-HCl, 50 mM KCl. […] Addition of DAN to intact mitochondria induced an increase of transport function up to 41% after 120 min.
In order to isolate crude mitochondria from rat liver, a standard protocol was performed, involving cell destruction by mechanical stress, isolation by differential centrifugation in order to eliminate various subcellular contaminations, and purification by centrifugation on colloidal silica Percoll 30% gradient. The average purity of the mitochondrial preparation was monitored by measuring the specific activity of alkaline phosphatase (EC 3.1.3.1). The specific activity of alkaline phosphatase, in the mitochondria preparations was measured at 37 °C as substrate consumed per min per mg protein [55]. […] The purified mitochondria (5 mg/100 μL) were incubated for 2 h with 20 mM carnitine, washed three times with a buffer containing 150 mM sucrose, 50 mM TRIS-HCl, 50 mM KCl, and the transport activity was measured. […]

[4] = design: method as in PMID 11735355; conditions: cited from earlier work

O=C1CN(/N=C/c2ccc(-c3ccc([N+](=O)[O-])cc3)o2)C(O)=N1 [Dantrolene]
hBChE IC50 [1]: No inhibition
reduction of ROS oxidation of DCF [2]: very effective
increase of CAC transport function in intact mitochondria [3]: 41%
antioxidant potency, inhibition of Fe2+/thiocyanate peroxidation of linoleic acid [4]: high antioxidant potency
